Values after ≈ are worked out from the molar mass of the structure shown.
What was measured:
Assay type in all cases: cell-based
[1] = test system: STAPHYLOCOCCUS AUREUS ATCC 6538P; assay: In vitro antibacterial activity, MIC, BHI agar dilution; settings: S. aureus ATCC 6538P, 35-37° C., 20 to 24 hours, unit assumed
[2] = test system: STAPHYLOCOCCUS AUREUS A5177; assay: as above; settings: S. aureus A5177, unit assumed
[3] = test system: STAPHYLOCOCCUS AUREUS A-5278; assay: as above; settings: S. aureus A-5278, unit assumed
[4] = test system: STAPHYLOCOCCUS AUREUS CMX 642A; assay: as above; settings: S. aureus CMX 642A, unit assumed
[5] = test system: STAPHYLOCOCCUS AUREUS NCTC10649M; assay: as above; settings: S. aureus NCTC10649M, unit assumed
[6] = test system: STAPHYLOCOCCUS AUREUS CMX 553; assay: as above; settings: S. aureus CMX 553, unit assumed
[7] = test system: STAPHYLOCOCCUS AUREUS 1775; assay: as above; settings: S. aureus 1775, unit assumed
[8] = test system: STAPHYLOCOCCUS EPIDERMIDIS 3519; settings: S. epidermidis 3519; BHI agar; unit assumed
[9] = test system: EN[…] ATCC 8043; assay: In vitro antibacterial activity, MIC, BHI agar dilution; settings: E. faecium ATCC 8043, unit assumed
How it was run: (§1)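 BHI agar dilution: twelve plates with successive compound dilutions, inoculated by replicator with 1:100 culture dilutions (1:10 for slow growers such as Micrococcus and Streptococcus), 20 to 24 hours at 35-37° C. MIC was the lowest concentration giving no growth, slight haze or sparse isolated colonies versus drug-free control; erythromycin A as class reference.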

[10] = test system: M[…] ATCC 4698; assay: as above; settings: M. luteus ATCC 4698, unit assumed
How it was run: as §1

[11] = test system: M[…] ATCC 9341; assay: as above; settings: M. luteus ATCC 9341, unit assumed
How it was run: as §1

[12] = test system: STR[…] 508; assay: as above; settings: S. agalactiae CMX 508, unit assumed
How it was run: as §1

[13] = test system: STREPTOCOCCUS BOVIS A-5169; assay: as above; settings: S. bovis A-5169, unit assumed
[14] = test system: STREPTOCOCCUS PYOGENES EES61; assay: as above; settings: S. pyogenes EES61, unit assumed
[15] = test system: STREPTOCOCCUS PYOGENES 930; assay: as above; settings: S. pyogenes 930, unit assumed
[16] = test system: STREPTOCOCCUS PYOGENES PIU 2548; assay: as above; settings: S. pyogenes PIU 2548, unit assumed
[17] = test system: ESCHERICHIA COLI JUHL; settings: E. coli JUHL; BHI agar; unit assumed
[18] = test system: ESCHERICHIA COLI SS; assay: In vitro antibacterial activity, MIC, BHI agar dilution; settings: E. coli SS, unit assumed
[19] = test system: ESCHERICHIA COLI DC-2; assay: as above; settings: E. coli DC-2, unit assumed
[20] = test system: ESCHERICHIA COLI H560; assay: as above; settings: E. coli H560, unit assumed
[21] = test system: ESCHERICHIA COLI KNK 437; settings: E. coli KNK 437; BHI agar; unit assumed
[22] = test system: ENTEROBACTER AEROGENES ATCC 13048; assay: In vitro antibacterial activity, MIC, BHI agar dilution; settings: E. aerogenes ATCC 13048, unit assumed
[23] = test system: KLEBSIELLA PNEUMONIAE ATCC 8045; assay: as above; settings: K. pneumoniae ATCC 8045, unit assumed
[24] = test system: PROVIDENCIA STUARTII CMX 640; settings: P. stuartii CMX 640; BHI agar; unit assumed
[25] = test system: PSEUDOMONAS AERUGINOSA BMH10; assay: In vitro antibacterial activity, MIC, BHI agar dilution; settings: P. aeruginosa BMH10, unit assumed
[26] = test system: PSEUDOMONAS AERUGINOSA 5007; assay: as above; settings: P. aeruginosa 5007, unit assumed
[27] = test system: PSEUDOMONAS AERUGINOSA K799/WT; assay: as above; settings: P. aeruginosa K799/WT, unit assumed
[28] = test system: PSEUDOMONAS AERUGINOSA K799/61; assay: as above; settings: P. aeruginosa K799/61, unit assumed
[29] = test system: PSEUDOMONAS CEPACIA 296I; assay: as above; settings: P. cepacia 296I, unit assumed
[30] = test system: PSEUDOMONAS AERUGINOSA DPHD-5263; assay: as above; settings: P. aeruginosa DPHD-5263, unit assumed
[31] = test system: PSEUDOMONAS AERUGINOSA DPHD-2862; assay: as above; settings: P. aeruginosa DPHD-2862, unit assumed
[32] = test system: CANDIDA ALBICANS CCH 442; assay: as above; settings: C. albicans CCH 442, unit assumed
[33] = test system: MYCOBACTERIUM SMEGMATIS ATCC 114; assay: as above; settings: M. smegmatis ATCC 114, unit assumed

SMILES	MIC [2] [µg/mL]	MIC [3] [µg/mL]	MIC [4] [µg/mL]	MIC [6] [µg/mL]	MIC [7] [µg/mL]	MIC [8] [µg/mL]	MIC [9] [µg/mL]	MIC [10] [µg/mL]	MIC [11] [µg/mL]	MIC [12] [µg/mL]	MIC [13] [µg/mL]	MIC [14] [µg/mL]	MIC [15] [µg/mL]	MIC [16] [µg/mL]	MIC [17] [µg/mL]	MIC [18] [µg/mL]	MIC [19] [µg/mL]	MIC [20] [µg/mL]	MIC [21] [µg/mL]	MIC [22] [µg/mL]	also measured
CCC1OC(=O)C(C)C(=O)C(C)C(OC2OC(C)CC(N(C)C)C2O)C(C)(OC)CC(C)C2=NC(COCc3ccc(N(C)C)cc3)CN3C(=O)OC1(C)C3C2C (stereo not shown) [Example 76]	0.39 (≈ 0.487 µM)	> 100	0.39 (≈ 0.487 µM)	0.39 (≈ 0.487 µM)	> 100	0.39 (≈ 0.487 µM)	0.1 (≈ 0.125 µM)	0.39 (≈ 0.487 µM)	0.2 (≈ 0.25 µM)	0.1 (≈ 0.125 µM)	0.01 (≈ 0.0125 µM)	0.1 (≈ 0.125 µM)	> 100	0.39 (≈ 0.487 µM)	> 100	0.39 (≈ 0.487 µM)	> 100	50 (≈ 62.4 µM)	> 100	> 100	MIC [1]: 0.39 µg/mL (≈ 0.487 µM); MIC [5]: 0.2 µg/mL (≈ 0.25 µM); MIC [23]: > 100 µg/mL; MIC [24]: > 100 µg/mL; MIC [25]: > 100 µg/mL; MIC [26]: > 100 µg/mL; MIC [27]: > 100 µg/mL; MIC [28]: 1.56 µg/mL (≈ 1.95 µM); MIC [29]: > 100 µg/mL; MIC [30]: > 100 µg/mL; MIC [31]: > 100 µg/mL; MIC [32]: > 100 µg/mL; MIC [33]: 6.2 µg/mL (≈ 7.74 µM)
CC[C@H]1OC(=O)[C@H](C)C(=O)[C@H](C)[C@@H](O[C@@H]2O[C@H](C)C[C@H](N(C)C)[C@H]2O)[C@](C)(OC)C[C@@H](C)C2=NCC(COC(=O)c3ccc4ccccc4n3)N3C(=O)O[C@@]1(C)[C@H]3[C@H]2C (stereo partly shown) [Example 142]	0.2 (≈ 0.243 µM)	> 100	0.2 (≈ 0.243 µM)	0.2 (≈ 0.243 µM)	> 100	0.2 (≈ 0.243 µM)	0.1 (≈ 0.122 µM)	0.1 (≈ 0.122 µM)	0.02 (≈ 0.0243 µM)	0.01 (≈ 0.0122 µM)	0.01 (≈ 0.0122 µM)	0.01 (≈ 0.0122 µM)	> 100	0.39 (≈ 0.474 µM)	50 (≈ 60.8 µM)	1.56 (≈ 1.9 µM)	25 (≈ 30.4 µM)	25 (≈ 30.4 µM)	100 (≈ 122 µM)	> 100	MIC [1]: 0.2 µg/mL (≈ 0.243 µM); MIC [5]: 0.2 µg/mL (≈ 0.243 µM); MIC [23]: > 100 µg/mL; MIC [24]: > 100 µg/mL; MIC [25]: > 100 µg/mL; MIC [26]: > 100 µg/mL; MIC [27]: > 100 µg/mL; MIC [28]: 1.56 µg/mL (≈ 1.9 µM); MIC [29]: > 100 µg/mL; MIC [30]: > 100 µg/mL; MIC [31]: > 100 µg/mL; MIC [32]: > 100 µg/mL; MIC [33]: 1.56 µg/mL (≈ 1.9 µM)
CCOC(=O)CCN1CC2N=C3C(C)CC(C)(OC)C(OC4OC(C)CC(N(C)C)C4O)C(C)C(=O)C(C)C(=O)OC(CC)C4(C)OC(=O)N(C2C1)C4C3C (stereo not shown) [Example 130]	0.78 (≈ 1 µM)	> 100	1.56 (≈ 2 µM)	1.56 (≈ 2 µM)	> 100	3.1 (≈ 3.98 µM)	0.2 (≈ 0.257 µM)	0.78 (≈ 1 µM)	0.2 (≈ 0.257 µM)	0.1 (≈ 0.128 µM)	0.1 (≈ 0.128 µM)	0.1 (≈ 0.128 µM)	> 100	6.2 (≈ 7.96 µM)	> 100	0.78 (≈ 1 µM)	> 100	> 100	> 100	> 100	MIC [23]: > 100 µg/mL; MIC [24]: > 100 µg/mL; MIC [25]: > 100 µg/mL; MIC [26]: > 100 µg/mL; MIC [27]: > 100 µg/mL; MIC [28]: 3.1 µg/mL (≈ 3.98 µM); MIC [29]: > 100 µg/mL; MIC [30]: > 100 µg/mL; MIC [31]: > 100 µg/mL; MIC [32]: > 100 µg/mL; MIC [33]: 25 µg/mL (≈ 32.1 µM)
